According to US20260078130A1, “NAMPT MODULATORS, PREPARATIONS, AND USES THEREOF” (SIRONAX LTD., priority 2022, published 2026):
Where two headings read alike, the source gives them in different places.

Legend:
[1] = target: T1, human enzyme NAMPT (full length) (Homo sapiens, UniProt P43490); experiment: NMN fluorescence biochemical assay (stimulation of NMN synthesis by NAMPT); conditions: for EC50: concentration giving half-maximal activation, read-out: Enzymatic EC50; for Enzymatic Emax: fold change of maximal activation compared to DMSO
T1 construct: human enzyme NAMPT (full length)
T1 sequence (P43490 whole entry): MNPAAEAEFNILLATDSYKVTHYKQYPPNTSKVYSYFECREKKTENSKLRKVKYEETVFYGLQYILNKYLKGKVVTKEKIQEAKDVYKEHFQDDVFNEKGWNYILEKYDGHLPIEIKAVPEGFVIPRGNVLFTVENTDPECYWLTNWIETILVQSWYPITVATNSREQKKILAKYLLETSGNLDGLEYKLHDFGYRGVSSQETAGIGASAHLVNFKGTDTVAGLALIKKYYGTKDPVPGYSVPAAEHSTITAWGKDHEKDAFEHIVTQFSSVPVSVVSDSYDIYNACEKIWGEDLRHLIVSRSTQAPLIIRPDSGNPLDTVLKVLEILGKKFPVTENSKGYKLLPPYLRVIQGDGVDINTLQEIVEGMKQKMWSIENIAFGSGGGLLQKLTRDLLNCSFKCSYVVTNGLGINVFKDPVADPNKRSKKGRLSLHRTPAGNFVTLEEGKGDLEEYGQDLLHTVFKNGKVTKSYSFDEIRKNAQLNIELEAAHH
In short: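 Full-length human NAMPT (100 nM) was preincubated 15 min at 37 °C with compound in 50 mM Tris-HCl pH 7.5, 10 mM MgCl2, 2 mM DTT, then reacted 1 h at 37 °C with 50 μM NAM, 100 μM PRPP, 4 mM ATP (stated solution concentrations). NMN was derivatised with acetophenone/KOH then formic acid and read at Ex/Em 382/445 nm; EC50 and Emax (fold over DMSO) reported.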

[2] = tested on: endogenous NAMPT in U2OS cells; experiment: Cellular NAD+ modulation assay (NAD/NADH-Glo, U2OS cells); format: cell-based; conditions: Homo sapiens; for maximal fold induction: read-out: Cellular Emax
In short: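 Endogenous NAMPT stimulation in U2OS cells treated with compound dilution series for 24 h at 37 °C. Cells lysed with DTAB base, acid-treated 15 min at 60 °C, neutralized, NAD+ read by NAD/NADH-Glo luminescence after 40 min at room temperature. EC50 and Emax (fold over DMSO) derived.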

[3] = NMN fluorescence assay, purified human NAMPT 100 nM
[4] = 24 hours incubation, cellular NAD+
[5] = NMN synthesis by purified human NAMPT (100 nM)
[6] = 24 hours incubation with compound

EC50 [1, 3] [nM]	Enzymatic Emax [1]	EC50 [2, 4] [nM]	EC50 [1, 5] [nM]	EC50 [2, 6] [nM]	SMILES	maximal fold induction [2, 4]	maximal fold induction [2, 6]
< 500	B (3≥B>2)	< 500	–	–	NC(=O)C1CC(CN2C(=O)c3ccccc3C2Cc2ncccc2Br)C1 (stereo not shown) [Compound 404, 3-((1-((3-bromopyridin-2-yl)methyl)-3-oxoisoindolin-2-yl)methyl)cyclobutane-1-carboxamide]	> 1.5	–
–	A (A>3)	–	≥ 5000	5000 to 50000	O=C1c2ccccc2CN1Cc1ccc2[nH]c(=O)oc2c1 [Compound 33, 6-((1-oxoisoindolin-2-yl)methyl)benzo[d]oxazol-2(3H)-one]	–	1.2 to 1.5
–	B (3≥B>2)	–	≥ 5000	5000 to 50000	O=C1c2ccc(N3CCOCC3)cc2CN1Cc1ccc2[nH]c(=O)oc2c1 [Compound 47, 6-((5-morpholino-1-oxoisoindolin-2-yl)methyl)benzo[d]oxazol-2(3H)-one]	–	> 1.5
–	A (A>3)	–	500 to 5000	500 to 5000	O=C1c2ccccc2C(Cc2ncccc2C(F)F)N1Cc1ccc2[nH]c(=O)oc2c1 (stereo not shown) [Compound 191, 6-((1-((3-(difluoromethyl)pyridin-2-yl)methyl)-3-oxoisoindolin-2-yl)methyl)benzo[d]oxazol-2(3H)-one]	–	> 1.5
–	B (3≥B>2)	–	500 to 5000	500 to 5000	CC1c2cc(C3COC3)ccc2C(=O)N1Cc1ccc2[nH]c(=O)oc2c1 (single isomer, unassigned) [Compound 198]	–	> 1.5
–	A (A>3)	–	≥ 5000	500 to 5000	Cc1ccc2c(c1)C(=O)N(Cc1ccc3[nH]nnc3c1)C2=O [Compound 37, 2-((1H-benzo[d][1,2,3]triazol-5-yl)methyl)-5-methylisoindoline-1,3-dione]	–	≤ 1.2
–	A (A>3)	–	≥ 5000	500 to 5000	CC1c2cc(C3CC3)ccc2C(=O)N1Cc1ccc2[nH]c(=O)oc2c1 (stereo not shown) [Compound 125, 6-((5-cyclopropyl-3-methyl-1-oxoisoindolin-2-yl)methyl)benzo[d]oxazol-2(3H)-one]	–	> 1.5
500 to 5000	B (3≥B>2)	5000 to 50000	–	–	CN1CC(c2ccc3c(c2)C(Cc2c(Cl)cnn2C)N(Cc2ccc4[nH]nnc4c2)C3=O)C1 (stereo not shown) [Compound 385, 2-((1H-benzo[d][1,2,3]triazol-5-yl)methyl)-3-((4-chloro-1-methyl-1H-pyrazol-5-yl)methyl)-5-(1-methylazetidin-3-yl)isoindolin-1-one]	> 1.5	–
–	B (3≥B>2)	< 500	–	–	Cn1ncc(Cl)c1CC1c2ccccc2C(=O)N1C[C@@H]1CC1c1c[nH]nn1 (stereo in doubt) [Compound 548, trans 2-((2-(1H-1,2,3-triazol-4-yl)cyclopropyl)methyl)-3-((4-chloro-1-methyl-1H-pyrazol-5-yl)methyl)isoindolin-1-one]	> 1.5	–
–	B (3≥B>2)	–	< 500	500 to 5000	O=C1c2ccc(C3CC3)cc2C(Cc2ccccc2)N1Cc1ccc2[nH]c(=O)oc2c1 (stereo not shown) [Compound 116, 6-((3-benzyl-5-cyclopropyl-1-oxoisoindolin-2-yl)methyl)benzo[d]oxazol-2(3H)-one]	–	> 1.5
–	B (3≥B>2)	–	≥ 5000	500 to 5000	CNC(=O)Nc1ccc(CN2Cc3ccccc3C2=O)cc1 [Compound 105, 1-methyl-3-(4-((1-oxoisoindolin-2-yl)methyl)phenyl)urea]	–	> 1.5
< 500	B (3≥B>2)	500 to 5000	–	–	N#CCn1cc(Cl)c(CC2c3ccccc3C(=O)N2Cc2ccc3[nH]nnc3c2)n1 (stereo not shown) [Compound 410, 2-(3-((2-((1H-benzo[d][1,2,3]triazol-5-yl)methyl)-3-oxoisoindolin-1-yl)methyl)-4-chloro-1H-pyrazol-1-yl)acetonitrile]	> 1.5	–
500 to 5000	B (3≥B>2)	< 500	–	–	Cc1ccc2c(c1)C(Cc1c(Cl)cnn1C)N(CC1CC3(CNC(=O)O3)C1)C2=O (stereo not shown) [Compound 485, 2-((3-((4-chloro-1-methyl-1H-pyrazol-5-yl)methyl)-5-methyl-1-oxoisoindolin-2-yl)methyl)-5-oxa-7-azaspiro[3.4]octan-6-one]	> 1.5	–
< 500	B (3≥B>2)	< 500	–	–	Cn1ncc(Cl)c1CC1c2ccccc2C(=O)N1CC#Cc1c[nH]nc1Cl (stereo not shown) [Compound 477, 3-((4-chloro-1-methyl-1H-pyrazol-5-yl)methyl)-2-(3-(3-chloro-1H-pyrazol-4-yl)prop-2-yn-1-yl)isoindolin-1-one]	> 1.5	–
< 500	B (3≥B>2)	< 500	–	–	C/C(=C\CN1C(=O)c2ccccc2C1Cc1ncccc1Br)c1c[nH]nn1 (stereo not shown) [Compound 425, (E)-2-(3-(1H-1,2,3-triazol-4-yl)but-2-en-1-yl)-3-((3-bromopyridin-2-yl)methyl) isoindolin-1-one]	> 1.5	–
500 to 5000	B (3≥B>2)	500 to 5000	–	–	COc1ccc(CN2C(=O)c3ccccc3C2Cc2c(C#N)ccnc2C#N)cc1 (stereo not shown) [Compound 590, 3-((2-(4-methoxybenzyl)-3-oxoisoindolin-1-yl)methyl)pyridine-2,4-dicarbonitrile]	1.2 to 1.5	–
< 500	A (A>3)	< 500	–	–	Cn1ncc(Cl)c1CC1c2cc(C3CC3)ccc2C(=O)N1Cc1ccc2[nH]nnc2c1 (stereo not shown) [Compound 350, 2-((1H-benzo[d][1,2,3]triazol-5-yl)methyl)-3-((4-chloro-1-methyl-1H-pyrazol-5-yl)methyl)-5-cyclopropylisoindolin-1-one]	> 1.5	–
–	A (A>3)	–	500 to 5000	500 to 5000	O=C1c2ccccc2C(Cc2ccccc2)N1Cc1ccc2[nH]c(=O)oc2c1 (stereo not shown) [Compound 106, 6-((1-benzyl-3-oxoisoindolin-2-yl)methyl)benzo[d]oxazol-2(3H)-one]	–	1.2 to 1.5
–	B (3≥B>2)	–	< 500	500 to 5000	Cc1c(C#N)cccc1CC1c2ccccc2C(=O)N1Cc1ccc2[nH]c(=O)oc2c1 (stereo not shown) [Compound 174, 2-methyl-3-((3-oxo-2-((2-oxo-2,3-dihydrobenzo[d]oxazol-6-yl)methyl)isoindolin-1-yl)methyl)benzonitrile]	–	> 1.5
–	C (2≥C)	–	< 500	5000 to 50000	NC(=O)Nc1ccc(CN2Cc3ccccc3C2=O)cc1 [Compound 293, 1-(4-((1-oxoisoindolin-2-yl)methyl)phenyl)urea]	–	> 1.5
–	A (A>3)	–	< 500	< 500	N#Cc1cccc(F)c1CC1c2ccccc2C(=O)N1Cc1ccc2[nH]c(=O)oc2c1 (stereo not shown) [Compound 170, 3-fluoro-2-((3-oxo-2-((2-oxo-2,3-dihydrobenzo[d]oxazol-6-yl)methyl)isoindolin-1-yl)methyl)benzonitrile]	–	> 1.5
500 to 5000	A (A>3)	< 500	–	–	COc1ccc(CN2C(=O)c3ccccc3C2Cc2c(Cl)c(Cl)nn2C)cc1 (stereo not shown) [Compound 566, 3-((3,4-dichloro-1-methyl-1H-pyrazol-5-yl)methyl)-2-(4-methoxybenzyl)isoindolin-1-one]	> 1.5	–
–	B (3≥B>2)	–	≥ 5000	5000 to 50000	Cn1c2ccccc2c(=O)n1Cc1ccc2[nH]c(=O)oc2c1 [Compound 46, 6-((1-methyl-3-oxo-1,3-dihydro-2H-indazol-2-yl)methyl)benzo[d]oxazol-2(3H)-one]	–	> 1.5
–	A (A>3)	–	< 500	< 500	N#Cc1ccccc1CC1c2ccccc2C(=O)N1Cc1ccc2[nH]c(=O)oc2c1 (stereo not shown) [Compound 147, 2-((3-oxo-2-((2-oxo-2,3-dihydrobenzo[d]oxazol-6-yl)methyl)isoindolin-1-yl)methyl) benzonitrile]	–	> 1.5
≥ 5000	A (A>3)	500 to 5000	–	–	COc1ccc(CN2C(=O)c3ccc(C4CC4)cc3C2Cc2c(Cl)cnn2C)cn1 (stereo not shown) [Compound 623, 3-((4-chloro-1-methyl-1H-pyrazol-5-yl)methyl)-5-cyclopropyl-2-((6-methoxypyridin-3-yl)methyl)isoindolin-1-one]	> 1.5	–
500 to 5000	C (2≥C)	5000 to 50000	–	–	Cn1ncc(Cl)c1C[C@@H]1c2ccccc2C(=O)N1C[C@H]1C[C@]2(CNC(=O)O2)C1 [Compound 405, (2s,4S)-2-(((R)-1-((4-chloro-1-methyl-1H-pyrazol-5-yl)methyl)-3-oxoisoindolin-2-yl)methyl)-5-oxa-7-azaspiro[3.4]octan-6-one]	1.2 to 1.5	–
